Reference: patent EP2073012A1, “Method for the isolation and identification of ADP-ribosylated molecules” (Fondazione Telethon, priority 2007, dated 2009)

How the values were obtained:
Af1521 = target: T1, Af1521 (Archaeoglobus fulgidus, UniProt O28751); details: cited from earlier work
T1 sequence (O28751 1-192): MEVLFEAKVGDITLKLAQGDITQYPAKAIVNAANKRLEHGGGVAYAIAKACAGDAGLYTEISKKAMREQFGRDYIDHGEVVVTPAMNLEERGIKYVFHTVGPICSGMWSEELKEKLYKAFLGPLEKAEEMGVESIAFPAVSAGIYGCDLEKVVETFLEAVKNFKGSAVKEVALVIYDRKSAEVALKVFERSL

BAL9 = details: cited from earlier work
His6-mAf1521 = target: T2, His6-mAf1521 (Archaeoglobus fulgidus, UniProt O28751); test: Pull-down displacement assay: free ADP-ribose added after pull-down of [32P]-ADP-ribosylated β subunit by resin-bound His6-mAf1521; assay type: binding
T2 construct: made in house
T2 sequence (O28751 1-192): T1 sequence (O28751 1-192)
Description: Samples (10 µg plasma membranes) were incubated with 50 µl ADP-ribosylation buffer (50 mM potassium phosphate buffer (PFB), pH 7.4, 5 mM MgCl2, 4 mM dithiothreitol (DTT), 10 µM GTPγS, 700 µM β-NAD^+ and 4.5 µCi [^32P]-NAD (specific activity: 1,000 Ci/mmol)) at 37 °C for 60 min, unless otherwise specified. Under these conditions, 10% of the total β was mono-ADP-ribosylated; to obtain maximal modification (80%-100% of total β mono-ADP-ribosylated), the incubation was prolonged to 12 h at 30 °C. The in-vitro PT-catalyzed ADP-ribosylation was performed as previously described^34, using either total membranes or purified proteins (β-action or SLC25A5; Sigma and Abnova Corporation, respectively). […]
Plasma membranes (10 µg for each sample) were ADP-ribosylated as described above, washed with 50 mM PFB, pH 7.4, to remove unbound NAD, and then centrifuged at 16.000x g for 15 min at 4 °C. […] Then the resin was washed three times with RIPA buffer plus 10 mM imidazole, and finally both the washed resin and the unbound fraction (one-eight of the total volume) were diluted in 50 µl Laemmli buffer, boiled and analysed by 10% SDS-PAGE. […] The gels underwent colloidal Coomassie blue (blue code, Pierce) or silver staining, and the bands of interest were analysed by MALDI-TOF-MS. […]

excess of ADP-ribose able to displace the immobilized ADP-ribosylated β subunit from the His6-mAf1521-resin complex (His6-mAf1521; molar excess over bound β subunit)	ADP-ribose concentration to displace all of the His6-mAf1521-bound [32P]-ADP-ribosylated β subunit (His6-mAf1521; ∼400 pmol ADP-ribose against ∼4 pmol bound β subunit)	Compound	fold lower affinity than free ADP-ribose (Af1521)	fold lower affinity than free ADP-ribose (BAL9)
		Nc1ncnc2c1ncn2[C@@H]1O[C@H](CO)[C@@H](O)[C@H]1O [adenosine]	> 1000 fold	> 1000 fold
		NC(=O)c1ccc[n+]([C@@H]2O[C@H](COP(=O)([O-])OP(=O)(O)OC[C@H]3O[C@@H](n4cnc5c(N)ncnc54)[C@H](O)[C@@H]3O)[C@@H](O)[C@H]2O)c1 [NAD]	> 1000 fold	> 1000 fold
~100 fold	100 µM	ADP-ribose		
